Data set [1] is described as follows: Musculoskeletal adverse events, study A4141001. The class given is in vivo, human.
In data set [2] the test system is CYP1A2, CYP2A6, CYP2C9, CYP2C19, CYP2D6, CYP2E1, CYP3A4. The experiment in a line: in vitro. To be noted: human, microsomes. The text has this:
Human livers, HLM141, HLM143, and HLM144 were selected from the University of Washington Human Liver Bank for this study. […] The actual concentrations used for each of the other probes are specified below. […] The seven isoforms and the metabolic pathway of each of the probes used to monitor specific isoform activity are listed below.

Where [3] appears, read: A4141001, patient type IIa + IIb.

In the case of `CC(C)(CCCCOCCCCC(C)(C)C(=O)O)C(=O)O` [Gemcabene, 6,6′-oxybis(2,2-dimethylhexanoic acid)], the “% = the percent of patients experiencing a musculoskeletal adverse event” value is listed as 0.0% in data set [1] (A4141001, patient type IIa); 0.0% in data set [1] (setting [3]); 0.0% in data set [1] (A4141001, patient type IIb). The “No = the number of muscle skeletal adverse events” value in data set [1] (A4141001, patient type IIa) was determined as 0; in data set [1] (setting [3]), 0; in data set [1] (A4141001, patient type IIb) it was 0. The IC50 (in general, the midpoint of a concentration-inhibition curve) in data set [2] is > 454 mg/L.
